Patent US20200131176A1, “SELECTIVE INHIBITORS OF CLINICALLY IMPORTANT MUTANTS OF THE EGFR TYROSINE KINASE” (CS Pharmatech Limited, priority 2017, published 2020)
Several values for one entry are separate records, joined by “and”; a condition that tells them apart may be missing. Identical values can stand only once. Counter-ions that a name gives are not always drawn. Like-named read-outs stand apart in the source and are kept apart here.

Experiments:
PC-9 cells = assay: PC-9 growth inhibition assay (cell proliferation, CellTiter-Glo, 72 h); assay type: cell-based, human; details: Homo sapiens, PC-9, 72 h, cellular proliferation, PC9 cells, single mutant EGFR, read-out: PC9 IC50 (nM) SM
Method: (§1) Then incubate the flasks at 37° C. until the cells detach.
(§2) Test compounds were dissolved in DMSO at 30 mM.
(§3) The final concentration was 1,000 cells/well. Add medium only as low control.
(§4) After 72 hours incubation, remove the plates from incubator and equilibrate at room temperature for 15 minutes. Incubate the CellTiter Glo reagents (Promega, G9243) at 37° C. before the experiment. The buffer was equilibrated to room temperature and used to dissolve the substrate. To determine the cell viability, add 40 μL of CellTiter-Glo reagent into each well to be detected (at 1:1 to culture medium). Then the place the plates at room temperature for 30 min followed by read on EnSpire (PerkinElmer).
(§5) For estimation of IC50, the luminescence readout are transformed to % Inhibition by applying the following equation:

H1975 cells = assay: H1975 inhibition assay (cell proliferation, CellTiter-Glo, 72 h); assay type: cell-based, human; details: Homo sapiens, NCI-H1975, 72 h, cellular proliferation, double mutant EGFR, read-out: NCI-H1975 IC50 (nM) DM
Method: H1975 Inhibition Assay (Cell Proliferation).
as §2, §3, §4, §5

[1] = molecular target: hERG channel (HEK 293 cell line stably expressing hERG channel) (Homo sapiens, UniProt Q12809); assay: cell-based
Sequence of hERG channel (HEK 293 cell line stably expressing hERG channel) (Q12809 whole entry): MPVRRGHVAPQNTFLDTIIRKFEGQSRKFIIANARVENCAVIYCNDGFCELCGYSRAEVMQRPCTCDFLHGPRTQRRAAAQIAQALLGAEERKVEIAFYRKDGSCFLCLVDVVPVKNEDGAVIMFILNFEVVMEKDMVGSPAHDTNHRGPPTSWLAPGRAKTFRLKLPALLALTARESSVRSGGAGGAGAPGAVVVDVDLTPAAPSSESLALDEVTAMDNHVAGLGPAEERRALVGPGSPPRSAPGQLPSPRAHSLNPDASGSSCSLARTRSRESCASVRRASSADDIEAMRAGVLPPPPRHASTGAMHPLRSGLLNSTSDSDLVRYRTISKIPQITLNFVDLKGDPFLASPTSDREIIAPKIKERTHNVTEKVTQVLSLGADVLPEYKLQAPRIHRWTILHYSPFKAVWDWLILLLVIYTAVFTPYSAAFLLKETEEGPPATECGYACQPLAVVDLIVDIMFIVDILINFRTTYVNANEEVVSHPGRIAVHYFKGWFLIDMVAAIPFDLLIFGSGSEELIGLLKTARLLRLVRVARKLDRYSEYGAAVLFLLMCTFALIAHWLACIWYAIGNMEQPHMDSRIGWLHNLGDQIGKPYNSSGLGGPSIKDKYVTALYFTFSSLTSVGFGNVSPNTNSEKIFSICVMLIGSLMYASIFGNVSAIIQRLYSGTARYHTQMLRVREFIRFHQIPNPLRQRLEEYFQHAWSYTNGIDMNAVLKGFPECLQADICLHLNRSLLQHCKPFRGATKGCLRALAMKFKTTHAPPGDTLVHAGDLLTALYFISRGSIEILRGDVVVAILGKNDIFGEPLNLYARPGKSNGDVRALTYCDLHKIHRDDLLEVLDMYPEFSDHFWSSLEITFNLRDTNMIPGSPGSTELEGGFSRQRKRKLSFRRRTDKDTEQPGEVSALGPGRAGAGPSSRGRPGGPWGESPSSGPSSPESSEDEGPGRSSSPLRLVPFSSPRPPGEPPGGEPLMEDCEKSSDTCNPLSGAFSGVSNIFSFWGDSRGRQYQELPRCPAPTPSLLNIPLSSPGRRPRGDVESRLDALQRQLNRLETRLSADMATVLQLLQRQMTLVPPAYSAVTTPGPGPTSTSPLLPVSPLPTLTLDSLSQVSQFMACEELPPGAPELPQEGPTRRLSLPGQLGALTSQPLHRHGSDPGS

[2] = molecular target: T1, L858R/T790M double mutant EGFR in H1975 cells (Homo sapiens, UniProt P00533, L858R/T790M); assay: L858R/T790M double mutant H1975 autophosphorylation inhibition assay (ELISA); assay type: cell-based; details: cellular EGFR autophosphorylation, H1975, 2 h treatment; read-out: DM (H1975) IC50
T1 construct: endogenous in cells; host or cells: H1975 cells
T1 sequence (P00533 25-1210 T790M/L858R): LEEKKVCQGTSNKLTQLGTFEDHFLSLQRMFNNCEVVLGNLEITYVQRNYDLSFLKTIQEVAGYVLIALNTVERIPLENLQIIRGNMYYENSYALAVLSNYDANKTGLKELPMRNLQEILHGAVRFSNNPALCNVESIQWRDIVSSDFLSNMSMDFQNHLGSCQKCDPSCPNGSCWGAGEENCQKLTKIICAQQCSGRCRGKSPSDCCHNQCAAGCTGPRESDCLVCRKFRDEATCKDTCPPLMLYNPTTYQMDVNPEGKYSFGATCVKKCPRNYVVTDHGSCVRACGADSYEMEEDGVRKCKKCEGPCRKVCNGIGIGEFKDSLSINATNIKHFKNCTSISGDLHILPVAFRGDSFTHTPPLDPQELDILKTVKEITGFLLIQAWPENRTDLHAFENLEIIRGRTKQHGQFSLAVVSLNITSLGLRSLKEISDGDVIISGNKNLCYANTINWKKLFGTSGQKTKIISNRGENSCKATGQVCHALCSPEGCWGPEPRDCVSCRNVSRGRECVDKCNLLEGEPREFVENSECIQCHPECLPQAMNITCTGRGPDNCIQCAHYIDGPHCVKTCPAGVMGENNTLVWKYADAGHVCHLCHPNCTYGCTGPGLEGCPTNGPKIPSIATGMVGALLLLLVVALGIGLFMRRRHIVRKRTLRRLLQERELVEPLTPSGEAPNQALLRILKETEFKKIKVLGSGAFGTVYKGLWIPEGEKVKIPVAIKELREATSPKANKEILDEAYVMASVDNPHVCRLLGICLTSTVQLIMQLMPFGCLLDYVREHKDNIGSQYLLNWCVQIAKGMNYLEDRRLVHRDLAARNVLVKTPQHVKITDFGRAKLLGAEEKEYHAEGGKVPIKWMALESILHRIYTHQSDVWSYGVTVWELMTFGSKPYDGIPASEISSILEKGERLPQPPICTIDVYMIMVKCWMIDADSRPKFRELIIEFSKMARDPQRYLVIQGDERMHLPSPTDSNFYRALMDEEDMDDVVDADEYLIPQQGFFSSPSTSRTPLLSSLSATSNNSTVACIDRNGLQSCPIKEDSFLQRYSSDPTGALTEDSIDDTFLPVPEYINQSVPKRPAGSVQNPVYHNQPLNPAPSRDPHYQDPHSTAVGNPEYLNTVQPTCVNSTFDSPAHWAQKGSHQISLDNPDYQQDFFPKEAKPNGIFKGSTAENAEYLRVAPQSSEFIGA

A431 cells = assay: A431 inhibition assay (cell proliferation, CellTiter-Glo, 72 h); assay type: cell-based, human; details: Homo sapiens, A-431, 72 h, cellular proliferation, wild type EGFR, read-out: A431 IC50 (nM) WT
Method: as §1, §2, §3, §4, §5

[3] = molecular target: T2, Exon 19 deletion EGFR (activating single mutant) in PC-9 cells (Homo sapiens, UniProt P00533, DEL746-750); assay: Exon 19 deletion EGFR PC-9 cellular autophosphorylation assay (p-EGFR ELISA); assay type: cell-based; details: PC9, 2 h treatment, read-out: SM (PC9) IC50
T2 construct: cellular phosphorylation of endogenous p-EGFR; host or cells: PC9 (PC-9) human lung cell line
T2 sequence (P00533 with tags, fused parts or gaps DEL746-750): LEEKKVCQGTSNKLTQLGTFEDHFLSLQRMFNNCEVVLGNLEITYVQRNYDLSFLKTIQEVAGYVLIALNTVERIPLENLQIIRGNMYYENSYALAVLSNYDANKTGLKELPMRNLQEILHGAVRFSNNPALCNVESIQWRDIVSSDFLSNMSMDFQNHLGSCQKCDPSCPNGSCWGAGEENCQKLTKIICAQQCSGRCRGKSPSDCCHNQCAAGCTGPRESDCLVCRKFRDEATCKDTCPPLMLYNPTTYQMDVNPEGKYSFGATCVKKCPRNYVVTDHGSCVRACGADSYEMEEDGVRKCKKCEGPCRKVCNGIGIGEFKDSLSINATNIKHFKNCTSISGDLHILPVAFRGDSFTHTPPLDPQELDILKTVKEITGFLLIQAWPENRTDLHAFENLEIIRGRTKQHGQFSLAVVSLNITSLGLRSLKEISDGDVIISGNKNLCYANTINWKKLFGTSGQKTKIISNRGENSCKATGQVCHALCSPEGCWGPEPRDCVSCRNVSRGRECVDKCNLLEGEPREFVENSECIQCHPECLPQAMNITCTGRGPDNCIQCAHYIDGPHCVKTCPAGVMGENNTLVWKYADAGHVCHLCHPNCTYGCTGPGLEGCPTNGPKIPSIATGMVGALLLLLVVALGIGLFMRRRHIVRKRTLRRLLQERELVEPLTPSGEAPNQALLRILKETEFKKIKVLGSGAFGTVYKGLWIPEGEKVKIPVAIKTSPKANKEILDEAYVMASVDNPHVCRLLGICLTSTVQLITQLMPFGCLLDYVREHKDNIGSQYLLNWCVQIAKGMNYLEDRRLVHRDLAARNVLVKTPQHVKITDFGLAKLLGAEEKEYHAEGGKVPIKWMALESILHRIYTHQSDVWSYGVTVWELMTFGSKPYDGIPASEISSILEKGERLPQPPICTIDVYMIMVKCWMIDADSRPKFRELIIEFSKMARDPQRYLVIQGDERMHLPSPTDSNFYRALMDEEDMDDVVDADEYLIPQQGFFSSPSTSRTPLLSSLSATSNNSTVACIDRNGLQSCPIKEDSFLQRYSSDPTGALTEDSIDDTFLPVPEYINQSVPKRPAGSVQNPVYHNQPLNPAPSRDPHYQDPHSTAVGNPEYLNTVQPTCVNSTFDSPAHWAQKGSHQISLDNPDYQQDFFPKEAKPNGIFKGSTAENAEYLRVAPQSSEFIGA
Method: The human lung cell line PC9 (Exon 19 deletion EGFR) were obtained from the American type Culture Collection. […] Cells were grown in a humidified incubator at 37° C. with 5% CO2, Assays to measure cellular phosphorylation of endogenous p-EGFR in cell Iysates were carried out according to the protocol described in the R&D Systems DuoSet IC Human Phospho-EGF R ELISA (R&D Systems catalogue number # DYCI095). 40 μL of cells were seeded (10000 cells/well) in growth medium in Coming black, clear-bottomed 384-well plates and incubated at 37° C. with 5% CO2 overnight. […] Plates were incubated for a further 2 h, then following aspiration of medium, 40 μL× lysis buffer is added to each well. Greiner black high bind 384 well plates were coated with capture antibody and then blocked with 3% BSA. Following removal of block, 15 μL of lysate are transferred to the Greiner black high bind 384 well plates and incubated for 2 hours. Following aspiration and washing of the plates with PBS, 20 μL of detection antibody were added and incubated for 2 hours. […] The data obtained with each compound are exported into a suitable software package (such as Origin) to perform curve fitting analysis.

[4] = molecular target: Wild type EGFR in A431 cells (Homo sapiens, UniProt P00533); details: WT (A431) IC50 nM, cellular EGFR autophosphorylation, A431, 2 h treatment then EGF stimulation 10 min
Sequence of Wild type EGFR in A431 cells (P00533 25-1210): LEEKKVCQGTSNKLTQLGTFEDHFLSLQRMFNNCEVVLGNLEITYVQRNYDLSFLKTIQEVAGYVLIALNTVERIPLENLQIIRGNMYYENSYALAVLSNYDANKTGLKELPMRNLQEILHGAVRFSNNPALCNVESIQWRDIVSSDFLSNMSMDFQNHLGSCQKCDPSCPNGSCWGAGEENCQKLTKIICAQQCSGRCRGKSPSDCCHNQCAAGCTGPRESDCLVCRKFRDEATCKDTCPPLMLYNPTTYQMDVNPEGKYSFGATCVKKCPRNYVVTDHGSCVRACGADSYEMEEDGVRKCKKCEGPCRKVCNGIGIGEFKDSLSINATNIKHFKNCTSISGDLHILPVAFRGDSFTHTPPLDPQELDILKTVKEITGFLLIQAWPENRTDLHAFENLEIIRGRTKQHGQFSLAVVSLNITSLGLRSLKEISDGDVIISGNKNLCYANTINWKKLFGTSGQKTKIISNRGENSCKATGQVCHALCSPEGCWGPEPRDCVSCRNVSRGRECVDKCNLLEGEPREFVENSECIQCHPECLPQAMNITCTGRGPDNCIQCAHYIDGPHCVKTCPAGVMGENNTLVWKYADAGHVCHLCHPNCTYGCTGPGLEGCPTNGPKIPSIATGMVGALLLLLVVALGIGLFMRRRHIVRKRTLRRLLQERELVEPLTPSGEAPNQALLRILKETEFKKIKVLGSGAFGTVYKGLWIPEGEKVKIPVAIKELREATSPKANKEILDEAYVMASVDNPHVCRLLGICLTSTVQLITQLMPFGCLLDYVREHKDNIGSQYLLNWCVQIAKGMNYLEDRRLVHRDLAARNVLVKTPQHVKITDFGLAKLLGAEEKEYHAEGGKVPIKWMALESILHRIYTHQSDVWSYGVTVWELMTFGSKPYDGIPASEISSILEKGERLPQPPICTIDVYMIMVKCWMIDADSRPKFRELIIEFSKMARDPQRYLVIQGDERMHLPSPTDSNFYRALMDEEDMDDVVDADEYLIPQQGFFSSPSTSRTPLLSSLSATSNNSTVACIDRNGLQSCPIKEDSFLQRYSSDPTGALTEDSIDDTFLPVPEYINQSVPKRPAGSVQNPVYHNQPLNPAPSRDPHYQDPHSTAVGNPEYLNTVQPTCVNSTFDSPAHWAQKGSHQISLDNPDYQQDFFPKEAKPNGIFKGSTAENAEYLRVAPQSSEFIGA

Mouse in vivo PK study [5] = details: mouse, plasma, male CD1 mice, 10 mg/kg PO; for half-life: read-out: T1/2 (PO) (converted)
Mouse in vivo PK study [6] = details: male CD1 mice, 1 mg/kg IV; for F: 10 mg/kg PO; for AUC / clearance / half-life: mouse, plasma; for half-life: read-out: T1/2 (IV) (converted)
Method: To determine the drug concentration in plasma of the compounds of the present disclosure following intravenous and oral administration in male CD 1 Mice, pharmacokinetic profile and PK parameters were obtained.
Test animals: healthy male CD1 mice (body weight 20-30 g, 18 mice, free access to food and water), provided by Sibeifu laboratory. […]
Samples collection: the healthy animals were used, weighed the bodyweight and marked at tail and cage card prior to dosing. Blood samples (0.03 mL per time point) were collected from dorsal metatarsal vein at 0.083, 0.25, 0.5, 1, 2, 4, 8, 24 h post dose for IV group and at 0.25, 0.5, 1, 2, 4, 8, 24 h post dose for PO group, the terminal time point was collected from heart (˜0.3 mL). The blood samples were put into the tube with heparin-Na coated and then put on the cold box, centrifuged at 4° C. 4000 g, 5 minutes immediately after collecting all samples per time point to get plasma. The plasma samples were stored in a freezer at −75±15° C. prior to analysis.
The drug concentration was determined by LC/MS/MS method, and the PK parameters were observed as follows.

Work on C=CC(=O)Nc1cc(Nc2nccc(-c3ccc4c(c3)c(C)cn4C)n2)c(OC)cc1N(C)CCN(C)C [Example 12, N-(5-((4-(1,3-Dimethyl-1H-indol-5-yl)pyrimidin-2-yl)amino)-2-((2-(dimethylamino)ethyl)(methyl)amino)-4-methoxyphenyl)acrylamide] yielded an IC50 (PC-9 cells) of 19.1 nM, an IC50 (H1975 cells) of 16.8 nM and an IC50 [1] of 4080 nM. It also gave an IC50 [2] of 7.73 nM, an IC50 (A431 cells) of 2430 nM and an IC50 [3] of 11.8 nM. The IC50 [4] was 63.6 nM.

For C=CC(=O)Nc1cc(Nc2nccc(-c3cccc4c3ccn4C)n2)c(OC)cc1N(C)CCN(C)C [Example 25, N-(2-((2-(dimethylamino)ethyl)(methyl)amino)-4-methoxy-5-((4-(1-methyl-1H-indol-4-yl)pyrimidin-2-yl)amino)phenyl)acrylamide], the IC50 (PC-9 cells) was 16.2 nM, the IC50 (H1975 cells) was 12.6 nM and the IC50 (A431 cells) was 1130 nM.

Compound C=CC(=O)Nc1cc(Nc2nccc(-n3nc(NCC)c4ncccc43)n2)c(OC(F)F)cc1N(C)CCN(C)C [Example 20, N-(4-(Difluoromethoxy)-2-((2-(dimethylamino)ethyl)(methyl)amino)-5-((4-(3-(ethylamino)-1H-pyrazolo[4,3-b]pyridin-1-yl)pyrimidin-2-yl)amino)phenyl)acrylamide] has an IC50 (PC-9 cells) of 0.91 nM, an IC50 (H1975 cells) of 1.08 nM and an IC50 [1] of 500 nM. For the same compound, the IC50 [2] was 1.07 nM, the IC50 (A431 cells) was 97.6 nM and the IC50 [3] was 1.38 nM. It also gave an IC50 [4] of 19 nM.

C=CC(=O)Nc1cc(Nc2nccc(-n3nc(NC)c4cc(Cl)sc43)n2)c(OC)cc1N(C)CCN(C)C [Example 24, N-(5-((4-(5-chloro-3-(methylamino)-1H-thieno[2,3-c]pyrazol-1-yl)pyrimidin-2-yl)amino)-2-((2-(dimethylamino)ethyl)(methyl)amino)-4-methoxyphenyl)acrylamide] gave an IC50 (PC-9 cells) of 1.57 nM, an IC50 (H1975 cells) of 2.43 nM and an IC50 (A431 cells) of 217 nM.

With C=CC(=O)Nc1cc(Nc2nccc(-c3cc(C#N)cc4c3cnn4C)n2)c(OC)cc1N(C)CCN(C)C [Example 9, N-(5-((4-(6-Cyano-1-methyl-1H-indazol-4-yl)pyrimidin-2-yl)amino)-2-((2-(dimethylamino)ethyl)(methyl)amino)-4-methoxyphenyl)acrylamide] the IC50 (PC-9 cells) was 7.67 nM, the IC50 (H1975 cells) was 3.05 nM and the AUC (Mouse in vivo PK study [5]) was 719 ng·h/mL. For the same compound, the Cmax (Mouse in vivo PK study [5]) was 159 ng/mL, the half-life (Mouse in vivo PK study [5]) was 3.55 h and the IC50 [1] was 1010 nM. For the same compound, the F (Mouse in vivo PK study [6]) was 23.1%, the AUC (Mouse in vivo PK study [6]) was 249 ng·h/mL and the clearance (Mouse in vivo PK study [6]) was 67 mL/min/kg. The half-life (Mouse in vivo PK study [6]) was 0.53 h, the IC50 [2] was 5.71 nM and the IC50 (A431 cells) was 2200 nM. For the same compound, the IC50 [3] was 10.8 nM and the IC50 [4] was 140 nM.

For C=CC(=O)Nc1cc(Nc2nccc(-c3cc4c(C)c[nH]c4c(C#N)n3)n2)c(OC)cc1N(C)CCN(C)C [Example 3, N-(5-((4-(7-Cyano-3-methyl-1H-pyrrolo[2,3-c]pyridin-5-yl)pyrimidin-2-yl)amino)-2-((2-(dimethylamino)ethyl)(methyl)amino)-4-methoxyphenyl)acryl amide], the IC50 (PC-9 cells) was 4.15 nM, the IC50 (H1975 cells) was 4.38 nM and the IC50 [1] was 858 nM. For the same compound, the IC50 [2] was 2.16 nM, the IC50 (A431 cells) was 1380 nM and the IC50 [3] was 5.15 nM. For the same compound, the IC50 [4] was 63.1 nM.

C=CC(=O)Nc1cc(Nc2nccc(-c3cnc4c(c3)c(C)cn4C)n2)c(OC)cc1N(C)CCN(C)C [Example 11, N-(5-((4-(1,3-Dimethyl-1H-pyrrolo[2,3-b]pyridin-5-yl)pyrimidin-2-yl)amino)-2-((2-(dimethylamino)ethyl)(methyl)amino)-4-methoxyphenyl) acrylamide] gave an IC50 (PC-9 cells) of 7.73 nM, an IC50 (H1975 cells) of 6.51 nM and an AUC (Mouse in vivo PK study [5]) of 641 ng·h/mL. For the same compound, the Cmax (Mouse in vivo PK study [5]) was 97 ng/mL, the half-life (Mouse in vivo PK study [5]) was 5.06 h and the IC50 [1] was 5780 nM. The F (Mouse in vivo PK study [6]) was 29.3%, the AUC (Mouse in vivo PK study [6]) was 153 ng·h/mL and the clearance (Mouse in vivo PK study [6]) was 114 mL/min/kg. The half-life (Mouse in vivo PK study [6]) was 1.1 h and the IC50 (A431 cells) was 2530 nM.

In the case of C=CC(=O)Nc1cc(Nc2nccc(-c3cc(C#N)c4c(c3)c(C)cn4C)n2)c(OC)cc1NCCN(C)C [Example 28, N-(5-((4-(7-cyano-1,3-dimethyl-1H-indol-5-yl)pyrimidin-2-yl)amino)-2-((2-(dimethylamino)ethyl)amino)-4-methoxyphenyl)acrylamide], the IC50 (PC-9 cells) is reported as 81.4 nM, the IC50 (H1975 cells) is reported as 13.6 nM and the IC50 (A431 cells) is reported as 912 nM.

C=CC(=O)Nc1cc(Nc2nccc(-n3nc(N(C)C)c4cnc(C)cc43)n2)c(OC)cc1N(C)CCN(C)C [Example 1, N-(5-((4-(3-(Dimethylamino)-6-methyl-1H-pyrazolo[4,3-c]pyridin-1-yl)pyrimidin-2-yl)amino)-2-((2-(dimethylamino)ethyl)(methyl)amino)-4-methoxyphenyl)acrylamide] gave an IC50 (PC-9 cells) of 9.24 nM, an IC50 (H1975 cells) of 11.4 nM and an IC50 (A431 cells) of 2140 nM.

C=CC(=O)Nc1cc(Nc2nccc(-c3cnc4c(c3)c(Cl)cn4C)n2)c(OC)cc1N(C)CCN(C)C [Example 13, N-(5-((4-(3-Chloro-1-methyl-1H-pyrrolo[2,3-b]pyridin-5-yl)pyrimidin-2-yl)amino)-2-((2-(dimethylamino)ethyl)(methyl)amino)-4-methoxyphenyl)acrylamide] gave an IC50 (PC-9 cells) of 4.64 nM, an IC50 (H1975 cells) of 2.98 nM and an AUC (Mouse in vivo PK study [5]) of 486 ng·h/mL. For the same compound, the Cmax (Mouse in vivo PK study [5]) was 63.5 ng/mL, the half-life (Mouse in vivo PK study [5]) was 6.1 h and the IC50 [1] was 1650 nM. It also gave an F (Mouse in vivo PK study [6]) of 17.3%, an AUC (Mouse in vivo PK study [6]) of 169 ng·h/mL and a clearance (Mouse in vivo PK study [6]) of 99 mL/min/kg. The half-life (Mouse in vivo PK study [6]) was 1.52 h.

Compound C=CC(=O)Nc1cc(Nc2nccc(-c3cc(C#N)c4c(c3)c(C)cn4C)n2)c(OC)cc1N(C)CCNC [Example 29, N-(5-((4-(7-Cyano-1,3-dimethyl-1H-indol-5-yl)pyrimidin-2-yl)amino)-4-methoxy-2-(methyl(2-(methylamino)ethyl)amino)phenyl)acrylamide] has an IC50 (PC-9 cells) of 51.9 nM, an IC50 (H1975 cells) of 23.6 nM and an IC50 (A431 cells) of 1370 nM.

With C=CC(=O)Nc1cc(Nc2nccc(-n3nc(OC)c4ccccc43)n2)c(OC)cc1N(C)CCN(C)C [Example 8, N-(2-((2-(Dimethylamino)ethyl)(methyl)amino)-4-methoxy-5-((4-(3-methoxy-1H-indazol-1-yl)pyrimidin-2-yl)amino)phenyl)acrylamide] the IC50 (PC-9 cells) was 18.6 nM, the IC50 (H1975 cells) was 11.6 nM and the IC50 [1] was 2230 nM. For the same compound, the IC50 [2] was 20.7 nM and 38.8 nM, the IC50 (A431 cells) was 1800 nM and the IC50 [3] was 27.6 nM and 29.4 nM. For the same compound, the IC50 [4] was 327 nM and 464 nM.

With [2H]C([2H])([2H])N(CCN(C)c1cc(OC)c(Nc2nccc(-c3cc(C#N)c4c(c3)c(C)cn4C)n2)cc1NC(=O)C=C)C([2H])([2H])[2H] [Example 27, N-(2-((2-(Bis(methyl-d3)amino)ethyl)(methyl)amino)-5-((4-(7-cyano-1,3-dimethyl-1H-indol-5-yl)pyrimidin-2-yl)amino)-4-methoxyphenyl)acrylamide mesylate] the IC50 (H1975 cells) was 2.26 nM, the AUC (Mouse in vivo PK study [5]) was 1040 ng·h/mL and the Cmax (Mouse in vivo PK study [5]) was 99 ng/mL. For the same compound, the half-life (Mouse in vivo PK study [5]) was 3.65 h, the F (Mouse in vivo PK study [6]) was 31.4% and the AUC (Mouse in vivo PK study [6]) was 297 ng·h/mL. It also gave a clearance (Mouse in vivo PK study [6]) of 60.7 mL/min/kg and a half-life (Mouse in vivo PK study [6]) of 1.76 h.

C=CC(=O)Nc1cc(Nc2nccc(-n3nc(NC)c4ccsc43)n2)c(OC)cc1N(C)CCN(C)C [Example 23, N-(2-((2-(dimethylamino)ethyl)(methyl)amino)-4-methoxy-5-((4-(3-(methylamino)-1H-thieno[2,3-c]pyrazol-1-yl)pyrimidin-2-yl)amino)phenyl)acrylamide] gave an IC50 (PC-9 cells) of 3.87 nM, an IC50 (H1975 cells) of 7.35 nM and an IC50 (A431 cells) of 566 nM.

In the case of C=CC(=O)Nc1cc(Nc2nccc(-c3cccc4c3cnn4C)n2)c(OC)cc1N(C)CCN(C)C [Example 10, N-(2-((2-(Dimethylamino)ethyl)(methyl)amino)-4-methoxy-5-((4-(1-methyl-1H-indazol-4-yl)pyrimidin-2-yl)amino)phenyl)acrylamide], the IC50 (PC-9 cells) is reported as 16.5 nM, the IC50 (H1975 cells) is reported as 12.7 nM and the IC50 (A431 cells) is reported as 695 nM.
